Laboratory results reported in patent US20230051589A1, “COMPOUNDS AND COMPOSITIONS FOR TREATING CONDITIONS ASSOCIATED WITH NLRP ACTIVITY” (Novartis AG, priority 2018, published 2023).
pIC50: −log10 of the molar value.

These compounds were tested on IL-1β production in PMA-differentiated THP-1 cells (assay: IL-1β production in PMA-differentiated THP-1 cells stimulated with gramicidin (hTHP-1 assay, 2% fetal bovine serum; Procedures 1-3)). Settings: Table B3; hTHP-1 assay containing 2% fetal bovine serum, gramicidin stimulation, IL-1β readout; read-out: hTHP-1 IC50.
Format: cell-based, human
Procedure, shortened: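 IL-1β released into supernatants was read by HTRF after 2 h gramicidin (5 μM) challenge. Before challenge, compounds (3-fold dilutions, top 100 μM, 0.37% DMSO) were given 1 h on THP-1 cells differentiated with PMA (20 ng/ml, 16-18 h) and held in 2% FBS medium.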
C[C@](O)(CO)c1ncc(S(N)(=O)=NC(=O)Nc2c3c(cc4c2CC4)CCC3)s1 (single isomer, unassigned) [Example 816, (S) or (R)-2-((S)-1,2-dihydroxypropan-2-yl)-N′-((2,4,5,6-tetrahydro-1H-cyclobuta[f]inden-3-yl)carbamoyl)thiazole-5-sulfonimidamide] showed a pIC50 of 6.00 to 6.70.
C[C@@](O)(CO)c1ncc(S(N)(=O)=NC(=O)Nc2c3c(cc4c2CC4)CCC3)s1 (single isomer, unassigned) [Example 817, (R) or (S)-2-((R)-1,2-dihydroxypropan-2-yl)-N′-((2,4,5,6-tetrahydro-1H-cyclobuta[f]inden-3-yl)carbamoyl)thiazole-5-sulfonimidamide] was tested, and the pIC50 was 7.40 to 8.10.
For C[C@@](O)(CO)c1ncc(S(N)(=O)=NC(=O)Nc2c3c(cc4c2CC4)CCC3)s1 (single isomer, unassigned) [Example 818, (S) or (R)-2-((R)-1,2-dihydroxypropan-2-yl)-N′-((2,4,5,6-tetrahydro-1H-cyclobuta[f]inden-3-yl)carbamoyl)thiazole-5-sulfonimidamide], the pIC50 was 6.00 to 6.70.
C[C@@](O)(CO)c1ncc(S(N)(=O)=NC(=O)Nc2c3c(cc4c2C(=O)CC4)CCC3)s1 (single isomer, unassigned) [Example 819, (R) or (S) -2-((R)-1,2-dihydroxypropan-2-yl)-N′-((3-oxo-1,2,3,5,6,7-hexahydro-s-indacen-4-yl)carbamoyl)thiazole-5-sulfonimidamide] showed a pIC50 of 6.00 to 6.70.
In the case of C[C@@](O)(CO)c1ncc(S(N)(=O)=NC(=O)Nc2c3c(cc4c2C(=O)CC4)CCC3)s1 (single isomer, unassigned) [Example 820, (S) or (R)-2-((R)-1,2-dihydroxypropan-2-yl)-N′-((3-oxo-1,2,3,5,6,7-hexahydro-s-indacen-4-yl)carbamoyl)thiazole-5-sulfonimidamide], the pIC50 was 4.52 to 5.30.
Compound NS(=O)(=NC(=O)Nc1c2c(cc3c1CCC3)CCC2)c1ccc([C@@H]2CCCN2)s1 (single isomer, unassigned) [Example 821, (R) or (S) -N′-((1,2,3,5,6,7-hexahydro-s-indacen-4-yl)carbamoyl)-5-((S)-pyrrolidin-2-yl)thiophene-2-sulfonimidamide] has a pIC50 of 6.00 to 6.70.
NS(=O)(=NC(=O)Nc1c2c(cc3c1CCC3)CCC2)c1ccc([C@@H]2CCCN2)s1 (single isomer, unassigned) [Example 822, (S) or (R) -N′-((1,2,3,5,6,7-hexahydro-s-indacen-4-yl)carbamoyl)-5-((S)-pyrrolidin-2-yl)thiophene-2-sulfonimidamide] gave a pIC50 of 5.30 to 6.00.
NS(=O)(=NC(=O)Nc1c2c(cc3c1CCC3)CCC2)c1ccc([C@H]2CCCN2)s1 (single isomer, unassigned) [Example 823, (R) or (S) -N′-((1,2,3,5,6,7-hexahydro-s-indacen-4-yl)carbamoyl)-5-((R)-pyriolidin-2-yl)thiophene-2-sulfonimidamide] was tested, and the pIC50 was 6.00 to 6.70.
Work on NS(=O)(=NC(=O)Nc1c2c(cc3c1CCC3)CCC2)c1ccc([C@H]2CCCN2)s1 (single isomer, unassigned) [Example 824, (S) or (R) -N′-((1,2,3,5,6,7-hexahydro-s-indacen-4-yl)carbamoyl)-5-((R)-pyrrolidin-2-yl)thiophene-2-sulfommidamide] yielded a pIC50 of 4.52 to 5.30.
For CCn1ccc(S(N)(=O)=NC(=O)Nc2c3c(cc4c2CC4)CCC3)n1 (single isomer, unassigned) [Example 825], the pIC50 was 6.70 to 7.40.
CCn1ccc(S(N)(=O)=NC(=O)Nc2c3c(cc4c2CC4)CCC3)n1 (single isomer, unassigned) [Example 826, (S) or (R) -1-ethyl-N′-((2,4,5,6-tetrahydro-1H-cyclobuta[f]inden-3-yl)carbamoyl)-1H-pyrazole-3-sulfonimidamide] was tested, and the pIC50 was 5.30 to 6.00.
CC(C)(O)c1ccnc(S(N)(=O)=NC(=O)Nc2c3c(c(C#N)c4c2CCC4)CCC3)c1 (single isomer, unassigned) [Example 827, (R) or (S)-N′-((8-cyano-1,2,3,5,6,7-hexahydro-s-indacen-4-yl)carbamoyl)-4-(2-hydroxypropan-2-yl)pyridine-2-sulfonimidamide] showed a pIC50 of 6.00 to 6.70.
CC(C)(O)c1ccnc(S(N)(=O)=NC(=O)Nc2c3c(c(C#N)c4c2CCC4)CCC3)c1 (single isomer, unassigned) [Example 828, (S) or (R)-N′-((8-cyano-1,2,3,5,6,7-hexahydro-s-indacen-4-yl)carbamoyl)-4-(2-hydroxypropan-2-yl)pyridine-2-sulfonimidamide] was tested, and the pIC50 was 5.30 to 6.00.
CC(C)(CO)c1ncc(S(N)(=O)=NC(=O)Nc2c3c(c(C#N)c4c2CCC4)CCC3)s1 (single isomer, unassigned) [Example 829, (S) or (R)-N′-((8-cyano-1,2,3,5,6,7-hexahydro-s-indacen-4-yl)carbamoyl)-2-(1-hydroxy-2-methylpropan-2-yl)thiazole-5-sulfonimidamide] gave a pIC50 of 5.30 to 6.00.
Compound CC(C)(CO)c1ncc(S(N)(=O)=NC(=O)Nc2c3c(c(C#N)c4c2CCC4)CCC3)s1 (single isomer, unassigned) [Example 830, (R) or (S)-N′-((8-cyano-1,2,3,5,6,7-hexahydro-s-indacen-4-yl)carbamoyl)-2-(1-hydroxy-2-methylpropan-2-yl)thiazole-5-sulfonimidamide] has a pIC50 of 6.70 to 7.40.
CC(C)(O)c1ccc(S(N)(=O)=NC(=O)Nc2c3c(cc4c2C(=O)CC4)CCC3)cn1 (single isomer, unassigned) [Example 831, (S) or (R)-6-(2-hydroxypropan-2-yl)-N′-((3-oxo-1,2,3,5,6,7-hexahydro-s-indacen-4-yl)carbamoyl)pyridine-3-sulfonimidamide] was tested, and the pIC50 was under 4.52.
Compound CC(C)(O)c1ccc(S(N)(=O)=NC(=O)Nc2c3c(cc4c2C(=O)CC4)CCC3)cn1 (single isomer, unassigned) [Example 832, (R) or (S)-6-(2-hydroxypropan-2-yl)-N′-((3-oxo-1,2,3,5,6,7-hexahydro-s-indacen-4-yl)carbamoyl)pyridine-3-sulfonimidamide] has a pIC50 of 6.00 to 6.70.
In the case of NS(=O)(=NC(=O)Nc1c2c(cc3c1CC3)CCC2)c1sc2c(c1F)CNCC2 (single isomer, unassigned) [Example 833, (R) or (S)-3-fluoro-N′-((2,4,5,6-tetrahydro-1H-cyclobuta[f]inden-3-yl)carbamoyl)-4,5,6,7-tetrahydrothieno[3,2-c]pyridine-2-sulfonimidamide], the pIC50 was 7.40 to 8.10.
In the case of NS(=O)(=NC(=O)Nc1c2c(cc3c1CC3)CCC2)c1sc2c(c1F)CNCC2 (single isomer, unassigned) [Example 834, (S) or (R)-3-fluoro-N′-((2,4,5,6-tetrahydro-1H-cyclobuta[f]inden-3-yl)carbamoyl)-4,5,6,7-tetrahydrothieno[3,2-c]pyridine-2-sulfonimidamide], the pIC50 was 6.00 to 6.70.
With CN1CCc2sc(S(N)(=O)=NC(=O)Nc3c4c(cc5c3CC5)CCC4)c(F)c2C1 (single isomer, unassigned) [Example 835, (R) or (S)-3-fluoro-5-methyl-N′-((2,4,5,6-tetrahydro-1H-cyclobuta[f]inden-3-yl)carbamoyl)-4,5,6,7-tetrahydrothieno[3,2-c]pyridine-2-sulfonimidamide] the pIC50 was 6.70 to 7.40.
Work on CN1CCc2sc(S(N)(=O)=NC(=O)Nc3c4c(cc5c3CC5)CCC4)c(F)c2C1 (single isomer, unassigned) [Example 836, (S) or (R)-3-fluoro-5-methyl-N′-((2,4,5,6-tetrahydro-1H-cyclobuta[f]inden-3-yl)carbamoyl)-4,5,6,7-tetrahydrothieno[3,2-c]pyridine-2-sulfonimidamide] yielded a pIC50 of 5.30 to 6.00.
In the case of CNCc1csc(S(N)(=O)=NC(=O)Nc2c3c(cc4c2CC4)CCC3)c1 (single isomer, unassigned) [Example 837, (R) or (S)-4-((methylamino)methyl)-N′-((2,4,5,6-tetrahydro-1H-cyclobuta[f]inden-3-yl)carbamoyl)thiophene-2-sulfonimidamide], the pIC50 was 6.70 to 7.40.
With CNCc1csc(S(N)(=O)=NC(=O)Nc2c3c(cc4c2CC4)CCC3)c1 (single isomer, unassigned) [Example 838, (S) or (R)-4-((methylamino)methyl)-N′-((2,4,5,6-tetrahydro-1H-cyclobuta[f]inden-3-yl)carbamoyl)thiophene-2-sulfonimidamide] the pIC50 was 6.00 to 6.70.
NS(=O)(=NC(=O)Nc1c2c(cc3c1CC3)CCC2)c1nn(C(F)F)cc1F (single isomer, unassigned) [Example 839, (R) or (S)-1-(difluoromethyl)-4-fluoro-N′-((2,4,5,6-tetrahydro-1H-cyclobuta[f]inden-3-yl)carbamoyl)-1H-pyrazole-3-sulfonimidamide] was tested, and the pIC50 was 6.70 to 7.40.
NS(=O)(=NC(=O)Nc1c2c(cc3c1CC3)CCC2)c1nn(C(F)F)cc1F (single isomer, unassigned) [Example 840, (S) or (R)-1-(difluoromethyl)-4-fluoro-N′-((2,4,5,6-tetrahydro-1H-cyclobuta[f]inden-3-yl)carbamoyl)-1H-pyrazole-3-sulfonimidamide] showed a pIC50 of 5.30 to 6.00.
Work on NS(=O)(=NC(=O)Nc1c2c(cc3c1CC3)CCC2)c1sc2c(c1F)COCC2 (single isomer, unassigned) [Example 841, (R) or (S)-3-fluoro-N′-((2,4,5,6-tetrahydro-1H-cyclobuta[f]inden-3-yl)carbamoyl)-6,7-dihydro-4H-thieno[3,2-c]pyran-2-sulfonimidamide] yielded a pIC50 of 6.00 to 6.70.
Work on NS(=O)(=NC(=O)Nc1c2c(cc3c1CC3)CCC2)c1sc2c(c1F)COCC2 (single isomer, unassigned) [Example 842, (S) or (R)-3-fluoro-N′-((2,4,5,6-tetrahydro-1H-cyclobuta[f]inden-3-yl)carbamoyl)-6,7-dihydro-4H-thieno[3,2-c]pyran-2-sulfonimidamide] yielded a pIC50 of 4.52 to 5.30.
Work on NS(=O)(=NC(=O)Nc1c2c(cc3c1CC3)CCC2)c1sc(CN2CCC2)cc1F (single isomer, unassigned) [Example 843, (R) or (S)-5-(azetidin-1-ylmethyl)-3-fluoro-N′-((2,4,5,6-tetrahydro-1H-cyclobuta[f]inden-3-yl)carbamoyl)thiophene-2-sulfonimidamide] yielded a pIC50 of 6.70 to 7.40.
